The values below come from patent publication US4379148A, “Analgesic and anti-inflammatory composition” (priority 1981, dated 1983).

SMILES strings stand for the structures. “Also recorded” adds a separate entry of the source.

Data set [1] in a line: Analgesic Test by Phenylquinone Writhing Method. The class given is in vivo, Male ddY mice. The following applies: for ED50: Mus musculus, po, read-out: ED50 (dose that reduced the number of writhes of the control group by 50%), drug alone; for combined analgesic effect with emorfazone: combination with emorfazone, in words; for ED50 dose obtained experimentally, with emorfazone 10 / theoretical additive ED50 dose, with emorfazone 10 / ED50 dose obtained experimentally, with emorfazone 20 / theoretical additive ED50 dose, with emorfazone 20: p.o.; for ED50 dose obtained experimentally, with emorfazone 10: combined with emorfazone 10 mg/kg (1/4 of its ED50); for theoretical additive ED50 dose, with emorfazone 10: combined with emorfazone 10 mg/kg; for ED50 dose obtained experimentally, with emorfazone 20: combined with emorfazone 20 mg/kg (1/2 of its ED50); for theoretical additive ED50 dose, with emorfazone 20: combined with emorfazone 20 mg/kg. As for the experimental part:
Male ddY mice (18-22 g) fasted for 18 hours were divided into test groups and a control group of 7 animals per group. […] The number of writhes was counted for 20 minutes after the p-phenylquinone injection.
A general note: Writhing tests count abdominal constrictions after an irritant is injected.

Data set [2] in a line: Analgesic Test by Randall-Selitto Method (carrageenin inflammatory pain). In kind it is in vivo, Male Wistar rats. The following applies: for ED50: Rattus norvegicus, po, read-out: ED50 (dose that increased the mean pain threshold of the control group by 50%), drug alone; for ED50 dose obtained experimentally, with emorfazone 4.5 / theoretical additive ED50 dose, with emorfazone 4.5 / ED50 dose obtained experimentally, with emorfazone 9 / theoretical additive ED50 dose, with emorfazone 9: p.o.; for ED50 dose obtained experimentally, with emorfazone 4.5 / theoretical additive ED50 dose, with emorfazone 4.5: combined with emorfazone 4.5 mg/kg; for ED50 dose obtained experimentally, with emorfazone 9 / theoretical additive ED50 dose, with emorfazone 9: combined with emorfazone 9 mg/kg. On the procedure: Male Wistar rats (120-140 g) fasted for 18 hours were divided into test groups and a control group of 5 animals per group. […] The pain threshold was measured after the carrageenin injection at hourly intervals for 3 hours with an analgesy meter (Ugo Basile, Milan).

A short description of data set [3]: Anti-inflammatory Test by Whittle's Method (acetic acid, dye in peritoneal exudate). In kind it is in vivo, Male ddY mice. The following applies: for ED30: Mus musculus, po, read-out: ED30 (dose which decreased the amount of dye of the control group by 30%), drug alone; for ED30 dose obtained experimentally, with emorfazone 28.8 / theoretical additive ED30 dose, with emorfazone 28.8 / ED30 dose obtained experimentally, with emorfazone 86 / theoretical additive ED30 dose, with emorfazone 86: p.o.; for ED30 dose obtained experimentally, with emorfazone 28.8 / theoretical additive ED30 dose, with emorfazone 28.8: combined with emorfazone 28.8 mg/kg; for ED30 dose obtained experimentally, with emorfazone 86 / theoretical additive ED30 dose, with emorfazone 86: combined with emorfazone 86 mg/kg. On the procedure: Male ddY mice (18-22 g) fasted for 18 hours were divided into test groups and a control group of 7 or 8 animals each. […] Ten minutes later, 10 ml/kg of 0.7% acetic acid dissolved in physiological saline was injected intraperitoneally into all animals and 20 minutes thereafter the animals were sacrificed. The amount of the dye in the peritoneal exudate was determined at 590 nm by using a spectrophotometer (Hitachi Instrument Co.). The ED30 was defined as the dose which decreased the amount of dye of the control group by 30%, and was determined graphically.

The conditions of data set [4]: p.o., combined with emorfazone 240 mg/kg.
The next data set in a line: in vivo. The following applies: mouse, po.
The conditions of data set [5]: combination with 100 mg/kg of emorfazone; in words.
Method: Female Sprague-Dawley rats (180-220 g) were used. […] On day 0 of the test, the adjuvant containing 0.6 mg of Mycobacterium butylicum (Difco) in 0.1 ml of liquid paraffin was injected into the plantar surface of the right hind paw. The test drugs were administered orally once a day for 15 days. The severity of inflammation of the 4 paws and the tail of each rat was evaluated visually at day 30 and scored by a point system. The grading for each lesion was on a 0 to 3 scale with 0 indicating absence of inflammation and 3 indicating maximum inflammation.
The mark [6] stands for this setting: LD50 dose obtained experimentally, with emorfazone 240, p.o., combined with emorfazone 240 mg/kg.

Regarding `CC(=O)Oc1ccccc1C(=O)O` [Acetylsalicylic acid, acetylsalicylic acid], in data set [1], the ED50 amounted to 155 mg/kg; the “combined analgesic effect with emorfazone” value (shortened to “combined analgesic effect”) is “for the most part a synergistic response”; the “ED50 dose obtained experimentally, with emorfazone 10” value is 115 mg/kg; the “theoretical additive ED50 dose, with emorfazone 10” value came to 116.3 mg/kg. In addition, in data set [1], the “ED50 dose obtained experimentally, with emorfazone 20” value is listed as 40 mg/kg and the “theoretical additive ED50 dose, with emorfazone 20” value is 77.5 mg/kg. In data set [2], the 50% effective dose (ED50) came out at 340 mg/kg; the “ED50 dose obtained experimentally, with emorfazone 4.5” value amounted to 240 mg/kg; the “theoretical additive ED50 dose, with emorfazone 4.5” value came out at 255 mg/kg; the “ED50 dose obtained experimentally, with emorfazone 9” value is 70 mg/kg. Also, the “theoretical additive ED50 dose, with emorfazone 9” value in data set [2] came out at 170 mg/kg. Besides, in data set [3], the ED30 worked out at 225 mg/kg; the “ED30 dose obtained experimentally, with emorfazone 28.8” value is listed as 160 mg/kg; the “theoretical additive ED30 dose, with emorfazone 28.8” value stood at 168.8 mg/kg; the “ED30 dose obtained experimentally, with emorfazone 86” value turned out to be 110 mg/kg. The “theoretical additive ED30 dose, with emorfazone 86” value in data set [3] amounted to 112.5 mg/kg. Further, the “theoretical additive LD50 dose, with emorfazone 240” value (“theoretical additive LD50 dose” below) in data set [4] is recorded as 945 mg/kg. This compound also yielded an LD50 at 168 h in “in vivo” of 1260 mg/kg. For the same compound, in “in vivo” (setting [6]), the LD50 at 168 h stood at 1000 mg/kg. In data set [5], the “inhibitory effect in combination with emorfazone” value (from here on “inhibitory effect in combination”) is on record as “not essentially affected”.

`CC(C)Cc1ccc(C(C)C(=O)O)cc1` (centres unmarked) [Ibuprofen]: in data set [1], the ED50 worked out at 13.5 mg/kg; the “combined analgesic effect” value was “for the most part a synergistic response”; the “ED50 dose obtained experimentally, with emorfazone 10” value is on record as 8 mg/kg; the “theoretical additive ED50 dose, with emorfazone 10” value came out at 10.1 mg/kg. In addition, in data set [1], the “ED50 dose obtained experimentally, with emorfazone 20” value amounted to 3 mg/kg and the “theoretical additive ED50 dose, with emorfazone 20” value came to 6.8 mg/kg. Besides, in data set [2], the ED50 came out at 120 mg/kg; the “ED50 dose obtained experimentally, with emorfazone 4.5” value was 10 mg/kg; the “theoretical additive ED50 dose, with emorfazone 4.5” value is 90 mg/kg; the “ED50 dose obtained experimentally, with emorfazone 9” value is recorded as 8 mg/kg. Besides, the “theoretical additive ED50 dose, with emorfazone 9” value in data set [2] is 60 mg/kg. Further, in data set [3], the ED30 turned out to be 76 mg/kg; the “ED30 dose obtained experimentally, with emorfazone 28.8” value came to 56 mg/kg; the “theoretical additive ED30 dose, with emorfazone 28.8” value was 57 mg/kg; the “ED30 dose obtained experimentally, with emorfazone 86” value amounted to 37 mg/kg. Besides, the “theoretical additive ED30 dose, with emorfazone 86” value in data set [3] came to 38 mg/kg. Further, the “theoretical additive LD50 dose” value in data set [4] came out at 862.5 mg/kg. In data set [5], the “inhibitory effect in combination” value was “significantly potentiated”.

Turning to `CC(C(=O)O)c1cccc(C(=O)c2ccccc2)c1` (centres unmarked) [Ketoprofen], in data set [1], the ED50 was determined as 0.5 mg/kg; the “combined analgesic effect” value is “for the most part a synergistic response”; the “ED50 dose obtained experimentally, with emorfazone 10” value amounted to 0.37 mg/kg; the “theoretical additive ED50 dose, with emorfazone 10” value stood at 0.38 mg/kg. Besides, in data set [1], the “ED50 dose obtained experimentally, with emorfazone 20” value is reported as 0.23 mg/kg and the “theoretical additive ED50 dose, with emorfazone 20” value worked out at 0.25 mg/kg. Further, in data set [2], the ED50 was determined as 6 mg/kg; the “ED50 dose obtained experimentally, with emorfazone 4.5” value was 3 mg/kg; the “theoretical additive ED50 dose, with emorfazone 4.5” value stood at 4.5 mg/kg; the “ED50 dose obtained experimentally, with emorfazone 9” value came out at 1 mg/kg. In addition, in data set [2], the “theoretical additive ED50 dose, with emorfazone 9” value is 3 mg/kg. Moreover, in data set [3], the ED30 is 3.2 mg/kg; the “ED30 dose obtained experimentally, with emorfazone 28.8” value is given as 2.2 mg/kg; the “theoretical additive ED30 dose, with emorfazone 28.8” value stood at 2.4 mg/kg; the “ED30 dose obtained experimentally, with emorfazone 86” value stood at 1.3 mg/kg. Moreover, the “theoretical additive ED30 dose, with emorfazone 86” value in data set [3] came out at 1.6 mg/kg. Moreover, the median lethal dose (LD50) at 168 h in the data set “in vivo” is 305 mg/kg. In addition, in the data set “in vivo” (setting [6]), the median lethal dose (LD50) at 168 h was determined as 380 mg/kg. Moreover, the “inhibitory effect in combination” value in data set [5] is “significantly potentiated”.

`Cc1cccc(Nc2ccccc2C(=O)O)c1C` [Mefenamic acid]: in data set [1], the ED50 stood at 36 mg/kg; the “combined analgesic effect” value is given as “for the most part a synergistic response”; the “ED50 dose obtained experimentally, with emorfazone 10” value was 21 mg/kg; the “theoretical additive ED50 dose, with emorfazone 10” value is on record as 27 mg/kg. In data set [1], the “ED50 dose obtained experimentally, with emorfazone 20” value is listed as 13 mg/kg and the “theoretical additive ED50 dose, with emorfazone 20” value is on record as 18 mg/kg. In data set [2], the ED50 came out at 120 mg/kg; the “ED50 dose obtained experimentally, with emorfazone 4.5” value is recorded as 58 mg/kg; the “theoretical additive ED50 dose, with emorfazone 4.5” value amounted to 90 mg/kg; the “ED50 dose obtained experimentally, with emorfazone 9” value is given as 20 mg/kg. For the same compound, the “theoretical additive ED50 dose, with emorfazone 9” value in data set [2] is on record as 60 mg/kg. Also, in data set [3], the ED30 was determined as 82 mg/kg; the “ED30 dose obtained experimentally, with emorfazone 28.8” value is listed as 60 mg/kg; the “theoretical additive ED30 dose, with emorfazone 28.8” value stood at 61.5 mg/kg; the “ED30 dose obtained experimentally, with emorfazone 86” value was 41 mg/kg. Moreover, the “theoretical additive ED30 dose, with emorfazone 86” value in data set [3] came out at 41 mg/kg. For the same compound, in data set [4], the “theoretical additive LD50 dose” value is listed as 892.5 mg/kg. In addition, the “inhibitory effect in combination” value in data set [5] is “significantly potentiated”.

On to `COc1ccc2cc([C@H](C)C(=O)O)ccc2c1` [Naproxen], for which, in data set [1], the ED50 turned out to be 9 mg/kg; the “combined analgesic effect” value is recorded as “for the most part a synergistic response”; the “ED50 dose obtained experimentally, with emorfazone 10” value is listed as 6.2 mg/kg; the “theoretical additive ED50 dose, with emorfazone 10” value came out at 6.3 mg/kg. Further, in data set [1], the “ED50 dose obtained experimentally, with emorfazone 20” value amounted to 4.1 mg/kg and the “theoretical additive ED50 dose, with emorfazone 20” value is 4.5 mg/kg. Further, in data set [2], the ED50 turned out to be 240 mg/kg; the “ED50 dose obtained experimentally, with emorfazone 4.5” value came out at 160 mg/kg; the “theoretical additive ED50 dose, with emorfazone 4.5” value turned out to be 180 mg/kg; the “ED50 dose obtained experimentally, with emorfazone 9” value is 60 mg/kg. Also, the “theoretical additive ED50 dose, with emorfazone 9” value in data set [2] is on record as 120 mg/kg. Besides, in data set [3], the ED30 was determined as 12 mg/kg; the “ED30 dose obtained experimentally, with emorfazone 28.8” value is reported as 8.5 mg/kg; the “theoretical additive ED30 dose, with emorfazone 28.8” value is reported as 9 mg/kg; the “ED30 dose obtained experimentally, with emorfazone 86” value was 5.8 mg/kg. The “theoretical additive ED30 dose, with emorfazone 86” value in data set [3] stood at 6 mg/kg. The “inhibitory effect in combination” value in data set [5] is given as “significantly potentiated”.

Regarding `CCCCC1C(=O)N(c2ccccc2)N(c2ccccc2)C1=O` [Phenylbutazone], in data set [1], the ED50 was found to be 66 mg/kg; the “combined analgesic effect” value was “potentiated by the emorfazone; also recorded: for the most part a synergistic response”; the “ED50 dose obtained experimentally, with emorfazone 10” value is recorded as 32 mg/kg; the “theoretical additive ED50 dose, with emorfazone 10” value turned out to be 49.5 mg/kg. Also, in data set [1], the “ED50 dose obtained experimentally, with emorfazone 20” value was determined as 16 mg/kg and the “theoretical additive ED50 dose, with emorfazone 20” value came out at 33 mg/kg. In addition, in data set [2], the 50% effective dose (ED50) is 125 mg/kg; the “ED50 dose obtained experimentally, with emorfazone 4.5” value was determined as 22 mg/kg; the “theoretical additive ED50 dose, with emorfazone 4.5” value was determined as 93.8 mg/kg; the “ED50 dose obtained experimentally, with emorfazone 9” value is reported as 19 mg/kg. Besides, the “theoretical additive ED50 dose, with emorfazone 9” value in data set [2] stood at 62.5 mg/kg. In addition, in data set [3], the ED30 was 175 mg/kg; the “ED30 dose obtained experimentally, with emorfazone 28.8” value is reported as 130 mg/kg; the “theoretical additive ED30 dose, with emorfazone 28.8” value was 131.3 mg/kg; the “ED30 dose obtained experimentally, with emorfazone 86” value is given as 86 mg/kg. Also, in data set [3], the “theoretical additive ED30 dose, with emorfazone 86” value is listed as 87.5 mg/kg. The “theoretical additive LD50 dose” value in data set [4] is given as 427.5 mg/kg. Moreover, in data set [5], the “inhibitory effect in combination” value was “not essentially affected”.

One may read the ED50 as the dose that gives a 50% effect, or the effect in half of the subjects. The term LD50 denotes the dose at which mortality reaches 50%.
